7 compounds from ChEMBL document CHEMBL5465560, “Selectivity Literature for EUbOPEN Chemogenomic Library” (2024) can be followed below.

In assay [1] the target is Dual specificity mitogen-activated protein kinase kinase 1 (Homo sapiens, UniProt Q02750). Kind of assay: Selectivity interaction (KinomeScan (DiscoverX)) EUB0000595a MAP2K1. To be noted: at 10 µM.
Assay [2] addresses Casein kinase I isoform epsilon (Homo sapiens, UniProt P49674). To be noted: at 10 µM.
Assay [3] deals with Tyrosine-protein kinase JAK1 (Homo sapiens, UniProt P23458). In words: Selectivity interaction (ActivX KiNativ screen (ex vivo kinase selectivity in human PBMCs)) EUB0001619a JAK1. Format: cell-based. To be noted: PBMC, at 1 µM.
Assay [4] has as its target Dual specificity mitogen-activated protein kinase kinase 2 (Homo sapiens) (UniProt P36507). In words: Selectivity interaction (KinomeScan (DiscoverX)) EUB0000666a MAP2K2. To be noted: at 10 µM.
Assay [5] addresses Serine/threonine-protein kinase OSR1 (Homo sapiens) (UniProt O95747). In words: Selectivity interaction (KinomeScan (DiscoverX)) EUB0000045b OXSR1.
For assay [6], the target named is Phosphatidylinositol 4-kinase beta (Homo sapiens, UniProt Q9UBF8). In words: Selectivity interaction (Kinase panel (literature)) EUB0001199aCl PI4KB. To be noted: at 1 µM.
The target in assay [7] is T1, Interleukin-1 receptor-associated kinase 4 (Homo sapiens) (UniProt Q9NWZ3).
T1 sequence (whole entry): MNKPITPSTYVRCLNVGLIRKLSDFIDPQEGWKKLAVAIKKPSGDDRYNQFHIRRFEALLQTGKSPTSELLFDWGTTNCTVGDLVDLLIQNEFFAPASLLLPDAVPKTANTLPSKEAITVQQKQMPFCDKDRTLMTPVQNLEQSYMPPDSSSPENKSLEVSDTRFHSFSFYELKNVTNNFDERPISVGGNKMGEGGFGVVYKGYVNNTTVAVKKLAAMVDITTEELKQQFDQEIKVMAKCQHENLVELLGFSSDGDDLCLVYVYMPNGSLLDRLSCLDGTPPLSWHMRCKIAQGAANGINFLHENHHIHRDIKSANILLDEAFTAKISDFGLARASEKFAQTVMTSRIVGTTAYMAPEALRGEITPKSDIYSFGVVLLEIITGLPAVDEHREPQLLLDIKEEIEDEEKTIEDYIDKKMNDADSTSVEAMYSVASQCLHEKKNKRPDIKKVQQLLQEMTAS
In words: Selectivity interaction (Ambit KINOMEscan and KiNATiv profiling in Jurkat cells) EUB0000090b IRAK4. To be noted: at 1 µM. It counts as cell-based.

In assay [8] the target is Serine/threonine-protein kinase 24 (Homo sapiens) (UniProt Q9Y6E0). In words: Selectivity interaction (Ambit KINOMEscan and KiNATiv profiling in Jurkat cells) EUB0000090b STK24. Format: cell-based. To be noted: at 1 µM.
In assay [9] the target is T2, Dual serine/threonine and tyrosine protein kinase (Homo sapiens) (UniProt Q6XUX3).
T2 sequence (whole entry): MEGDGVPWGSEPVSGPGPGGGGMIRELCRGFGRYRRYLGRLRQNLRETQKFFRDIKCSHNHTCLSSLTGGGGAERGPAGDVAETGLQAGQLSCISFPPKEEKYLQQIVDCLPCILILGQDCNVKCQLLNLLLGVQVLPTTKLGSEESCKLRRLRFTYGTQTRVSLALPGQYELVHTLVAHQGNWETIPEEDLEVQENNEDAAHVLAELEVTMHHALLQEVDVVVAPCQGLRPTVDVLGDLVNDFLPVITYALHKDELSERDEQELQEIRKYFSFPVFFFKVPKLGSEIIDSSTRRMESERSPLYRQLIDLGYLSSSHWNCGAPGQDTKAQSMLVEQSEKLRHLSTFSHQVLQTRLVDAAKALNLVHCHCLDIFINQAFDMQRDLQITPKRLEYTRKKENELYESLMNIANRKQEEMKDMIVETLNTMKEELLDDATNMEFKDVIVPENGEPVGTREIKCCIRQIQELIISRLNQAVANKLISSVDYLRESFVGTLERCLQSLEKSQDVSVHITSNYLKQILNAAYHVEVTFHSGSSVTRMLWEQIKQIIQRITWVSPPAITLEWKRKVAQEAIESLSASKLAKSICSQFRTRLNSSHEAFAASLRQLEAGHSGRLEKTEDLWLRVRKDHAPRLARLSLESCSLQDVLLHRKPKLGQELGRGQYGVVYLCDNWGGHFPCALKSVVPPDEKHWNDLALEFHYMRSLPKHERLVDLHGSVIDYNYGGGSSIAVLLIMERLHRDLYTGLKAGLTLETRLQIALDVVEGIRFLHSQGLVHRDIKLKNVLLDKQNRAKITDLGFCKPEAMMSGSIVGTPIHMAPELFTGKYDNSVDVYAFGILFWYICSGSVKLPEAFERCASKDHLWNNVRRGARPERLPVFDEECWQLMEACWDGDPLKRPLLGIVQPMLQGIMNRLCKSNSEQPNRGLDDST
Kind of assay: Selectivity interaction (KinomeScan (DiscoverX)) EUB0000655a DSTYK. To be noted: at 10 µM.

Each structure is given as a SMILES string.

Chain of Serine/threonine-protein kinase OSR1 (Homo sapiens) (O95747 2-527 limits assumed): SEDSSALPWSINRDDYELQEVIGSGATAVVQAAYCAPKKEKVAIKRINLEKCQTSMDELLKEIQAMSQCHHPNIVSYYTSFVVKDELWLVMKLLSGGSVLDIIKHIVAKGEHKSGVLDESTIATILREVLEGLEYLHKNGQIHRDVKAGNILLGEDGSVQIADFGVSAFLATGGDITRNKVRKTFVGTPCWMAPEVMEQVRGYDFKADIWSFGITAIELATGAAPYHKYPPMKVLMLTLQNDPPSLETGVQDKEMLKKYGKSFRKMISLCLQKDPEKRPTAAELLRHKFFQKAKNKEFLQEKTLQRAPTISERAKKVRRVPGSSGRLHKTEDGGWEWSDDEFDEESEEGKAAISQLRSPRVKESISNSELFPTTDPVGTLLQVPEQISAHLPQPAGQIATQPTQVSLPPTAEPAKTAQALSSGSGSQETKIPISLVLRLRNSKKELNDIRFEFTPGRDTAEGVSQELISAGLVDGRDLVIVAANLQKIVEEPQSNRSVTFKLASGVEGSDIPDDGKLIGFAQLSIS
Chain of Phosphatidylinositol 4-kinase beta (Q9UBF8 2-816 limits assumed): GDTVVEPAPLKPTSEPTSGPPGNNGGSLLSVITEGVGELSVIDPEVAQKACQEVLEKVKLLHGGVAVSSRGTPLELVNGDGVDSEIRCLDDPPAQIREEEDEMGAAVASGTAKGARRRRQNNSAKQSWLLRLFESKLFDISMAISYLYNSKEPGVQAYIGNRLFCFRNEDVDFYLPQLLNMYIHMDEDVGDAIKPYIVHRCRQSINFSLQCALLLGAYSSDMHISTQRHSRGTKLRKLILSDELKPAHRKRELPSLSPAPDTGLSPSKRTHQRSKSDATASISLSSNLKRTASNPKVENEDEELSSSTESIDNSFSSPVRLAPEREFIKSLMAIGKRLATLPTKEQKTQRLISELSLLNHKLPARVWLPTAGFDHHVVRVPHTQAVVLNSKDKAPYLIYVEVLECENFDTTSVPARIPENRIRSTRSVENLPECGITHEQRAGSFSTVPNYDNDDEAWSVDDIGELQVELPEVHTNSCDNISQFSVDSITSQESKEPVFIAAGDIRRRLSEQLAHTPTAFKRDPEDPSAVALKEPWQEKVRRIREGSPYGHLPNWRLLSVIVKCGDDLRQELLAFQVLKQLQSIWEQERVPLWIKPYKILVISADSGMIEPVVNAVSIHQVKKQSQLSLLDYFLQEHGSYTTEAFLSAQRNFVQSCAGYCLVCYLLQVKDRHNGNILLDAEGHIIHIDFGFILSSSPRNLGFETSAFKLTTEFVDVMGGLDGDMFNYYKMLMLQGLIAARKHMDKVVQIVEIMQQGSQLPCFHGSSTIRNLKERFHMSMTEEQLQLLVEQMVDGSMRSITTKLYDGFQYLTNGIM
Chain of Tyrosine-protein kinase JAK1 (P23458 whole entry): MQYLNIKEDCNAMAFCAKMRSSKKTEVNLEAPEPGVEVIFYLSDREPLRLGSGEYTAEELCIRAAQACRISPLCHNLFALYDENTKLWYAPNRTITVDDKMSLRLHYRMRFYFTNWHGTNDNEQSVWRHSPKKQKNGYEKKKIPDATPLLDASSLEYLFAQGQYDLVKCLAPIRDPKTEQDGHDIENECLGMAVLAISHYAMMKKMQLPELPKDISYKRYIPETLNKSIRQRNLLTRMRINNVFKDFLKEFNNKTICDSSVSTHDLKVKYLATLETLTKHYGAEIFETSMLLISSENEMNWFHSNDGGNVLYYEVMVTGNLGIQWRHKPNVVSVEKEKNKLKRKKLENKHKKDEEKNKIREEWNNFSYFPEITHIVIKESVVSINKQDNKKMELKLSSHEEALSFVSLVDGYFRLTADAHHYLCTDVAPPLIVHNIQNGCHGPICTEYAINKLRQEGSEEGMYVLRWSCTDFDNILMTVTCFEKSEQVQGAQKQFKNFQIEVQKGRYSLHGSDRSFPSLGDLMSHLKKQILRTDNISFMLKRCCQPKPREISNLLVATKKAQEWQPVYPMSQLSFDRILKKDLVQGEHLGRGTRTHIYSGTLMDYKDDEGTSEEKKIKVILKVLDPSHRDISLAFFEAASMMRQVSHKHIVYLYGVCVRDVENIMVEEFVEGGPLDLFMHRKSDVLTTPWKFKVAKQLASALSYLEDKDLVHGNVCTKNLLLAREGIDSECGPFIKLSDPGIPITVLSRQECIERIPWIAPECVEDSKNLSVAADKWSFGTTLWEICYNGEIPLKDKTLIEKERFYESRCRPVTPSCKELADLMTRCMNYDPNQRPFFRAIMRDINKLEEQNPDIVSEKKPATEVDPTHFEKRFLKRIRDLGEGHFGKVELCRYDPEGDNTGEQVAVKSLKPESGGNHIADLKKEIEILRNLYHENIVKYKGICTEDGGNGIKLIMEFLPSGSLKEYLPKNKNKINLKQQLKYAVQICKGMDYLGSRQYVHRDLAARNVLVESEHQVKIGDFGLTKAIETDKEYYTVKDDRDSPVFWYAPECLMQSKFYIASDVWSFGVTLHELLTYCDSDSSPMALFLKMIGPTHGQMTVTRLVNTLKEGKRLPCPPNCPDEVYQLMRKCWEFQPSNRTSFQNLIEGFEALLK
Chain of Serine/threonine-protein kinase 24 (Homo sapiens) (Q9Y6E0 whole entry, looked up): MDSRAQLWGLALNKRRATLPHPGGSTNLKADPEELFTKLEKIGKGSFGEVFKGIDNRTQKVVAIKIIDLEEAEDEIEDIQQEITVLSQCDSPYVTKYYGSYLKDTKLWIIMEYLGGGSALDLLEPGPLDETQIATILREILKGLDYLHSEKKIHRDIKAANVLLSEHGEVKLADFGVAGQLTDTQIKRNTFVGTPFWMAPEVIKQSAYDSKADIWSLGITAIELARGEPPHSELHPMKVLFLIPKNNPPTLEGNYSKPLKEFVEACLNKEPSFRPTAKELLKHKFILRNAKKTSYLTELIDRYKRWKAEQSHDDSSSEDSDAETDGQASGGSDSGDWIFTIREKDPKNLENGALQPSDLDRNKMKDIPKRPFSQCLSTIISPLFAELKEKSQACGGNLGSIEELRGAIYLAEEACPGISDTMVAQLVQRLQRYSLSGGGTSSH
Chain of Dual specificity mitogen-activated protein kinase kinase 2 (Homo sapiens) (P36507 whole entry): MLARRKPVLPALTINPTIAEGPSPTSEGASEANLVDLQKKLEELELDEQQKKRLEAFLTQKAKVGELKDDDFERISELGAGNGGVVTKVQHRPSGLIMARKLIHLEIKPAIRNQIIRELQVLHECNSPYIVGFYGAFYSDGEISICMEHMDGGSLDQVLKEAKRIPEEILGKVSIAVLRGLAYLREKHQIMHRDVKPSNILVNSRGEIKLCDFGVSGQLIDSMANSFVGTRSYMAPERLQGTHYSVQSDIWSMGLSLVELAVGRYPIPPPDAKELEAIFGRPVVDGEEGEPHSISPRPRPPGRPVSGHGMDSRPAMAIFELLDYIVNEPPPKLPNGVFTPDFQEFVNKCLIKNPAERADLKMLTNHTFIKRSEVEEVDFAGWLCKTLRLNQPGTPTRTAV
Chain of Dual specificity mitogen-activated protein kinase kinase 1 (Q02750 whole entry, canonical isoform): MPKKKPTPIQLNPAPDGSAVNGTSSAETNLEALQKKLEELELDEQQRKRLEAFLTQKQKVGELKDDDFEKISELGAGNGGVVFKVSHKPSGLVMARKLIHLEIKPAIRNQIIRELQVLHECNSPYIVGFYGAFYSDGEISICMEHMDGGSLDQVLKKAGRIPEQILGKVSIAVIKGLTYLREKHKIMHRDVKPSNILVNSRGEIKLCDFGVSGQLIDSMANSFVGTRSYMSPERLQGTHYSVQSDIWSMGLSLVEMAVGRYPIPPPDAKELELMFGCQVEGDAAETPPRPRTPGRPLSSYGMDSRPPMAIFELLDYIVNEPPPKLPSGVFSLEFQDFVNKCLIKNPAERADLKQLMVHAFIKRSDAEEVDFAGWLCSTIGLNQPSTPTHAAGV
Chain of Casein kinase I isoform epsilon (P49674 whole entry, looked up, canonical isoform): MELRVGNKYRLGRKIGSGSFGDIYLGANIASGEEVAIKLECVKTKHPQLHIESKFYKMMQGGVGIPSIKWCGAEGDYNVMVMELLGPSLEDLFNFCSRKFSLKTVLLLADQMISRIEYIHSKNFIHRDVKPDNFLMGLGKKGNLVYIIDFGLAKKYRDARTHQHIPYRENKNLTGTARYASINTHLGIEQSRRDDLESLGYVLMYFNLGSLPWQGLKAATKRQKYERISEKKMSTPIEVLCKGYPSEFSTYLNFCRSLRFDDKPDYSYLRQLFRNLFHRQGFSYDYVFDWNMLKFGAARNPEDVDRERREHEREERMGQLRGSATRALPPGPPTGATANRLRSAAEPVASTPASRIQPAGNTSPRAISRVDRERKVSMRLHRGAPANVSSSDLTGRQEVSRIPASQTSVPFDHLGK

Regarding `COCC(=O)NC/C=C/c1ccc2ncnc(Nc3ccc(Oc4ccc(C)nc4)c(C)c3)c2c1` [CP-724714], the % of control in assay [1] came out at 9.4%; in assay [2], 100%.
Turning to `N#Cc1cccc(-c2c[nH]c3ncnc(N4CCOCC4)c23)c1`, in assay [3], the % of inhibition was determined as 5%.
Regarding `O=C(NOC[C@H](O)CO)c1ccc(F)c(F)c1Nc1ccc(I)cc1F`, the % of control in assay [4] was found to be 0.2%.
On to `C=CC(=O)Nc1cc(-n2c(=O)ccc3cnc4ccc(-c5ccc(NS(C)(=O)=O)cc5)cc4c32)ccc1C`, for which the % of control in [5] (at 1 µM) amounted to 100%; in assay [5] (at 10 µM) it was 94%.
Take `CN1Cc2nccc(-c3cn(C)nc3-c3ccc(F)cc3)c2C1=O`: in [6], the % of inhibition is -3%.
In the case of `CN(C)C/C=C/C(=O)Nc1ccc(C(=O)N2CCCC(Nc3ncc(Cl)c(-c4c[nH]c5ccccc45)n3)C2)cc1` (stereo not given), the % of control in [7] amounted to 99%; in assay [8], 94%.
For the compound `CN(C)CCOc1ccc(-c2nc(-c3ccncc3)c(-c3ccc4c(c3)CC/C4=N\O)[nH]2)cc1`, the % of control in assay [9] turned out to be 83%.
